Experimental data as given in patent publication US20100034778A1, “STEM CELLS” (DUKE UNIVERSITY, priority 2005, published 2010).
“And” between values parts separate entries of the source, which are not always exact repeats. Equal values may be shown once. “Also recorded” adds a separate entry of the source.

Assays:
[1] = tested on: BM CD34^+CD38^−lin^− cells; test: Culture of human BM CD34+CD38-lin- cells with TSF plus retinoid/rexinoid ligand (total cell expansion, immunophenotype, CFC content, morphology); type: cell-based
Description: (§1) Isolation of Human BM and CB CD34^+CD38^−lin− cells
(§2) Whole BM and CB units were obtained from the Duke University Stem Cell Laboratory within 48 hours of collection. Volume reduction of CB units was accomplished by 10 minute incubation at room temperature with 1% Hetastarch (Abbott Laboratories, North Chicago, Ill.), followed by centrifugation at 700 rpm for 10 minutes to facilitate component separation. The buffy coat was collected and washed twice with Dulbecco's phosphate buffered saline (PBS; Invitrogen, Carlsbad, Calif.) containing 10% heat-inactivated fetal bovine serum (FBS; Hyclone, Logan, Utah), 100 U/ml penicillin, and […] streptomycin (1% pcn/strp; Invitrogen). Cell pellets were resuspended in PBS with 10% FBS and 1% pcn/strp and overlaid onto Lymphoprep (Axis-Shield, Olso, Norway) and centrifuged at 1500 rpm for 30 minutes to isolate the mononuclear cell (MNC) fraction. MNCs were collected and washed twice before proceeding to lineage depletion.
(§3) Briefly, CB or BM MNCs were resuspended at 5−8×10^7 cells/ml in PBS with 10% FBS and 1% pcn/strp and incubated with 100 μl/ml antibody cocktail for 30 minutes followed by incubation with 60 μl/ml magnetic colloid for 30 minutes. Cells were then magnetically depleted on a pump fed negative selection column (Stem Cell Technologies) using the manufacturer's recommended procedure. Lin-cells were washed twice, quantified by hemacytometer count and cryopreserved in 90% FBS and 10% dimethylsulfoxide (DMSO; Sigma-Aldrich, St. Louis, Mo.) or utilized directly for further experiments.
(§4) Lin^− CB or BM cells were thawed, washed once in Iscove's Modified Dulbecco's Medium (IMDM; Invitrogen) containing 10% FBS and 1% pcn/strp, counted, and resuspended at 5−10×10^7/ml. Immunofluorescent staining was conducted using anti-human CD34-fluorescein isothiocyanate (FITC) and anti-human CD38-phycoerythrin (PE) monoclonal antibodies (Becton Dickinson, San Jose, Calif.), for 30 minutes on ice. Stained cells were washed twice and resuspended at 1×10^7 cells/ml in IMDM with 10% FBS and 1% pcn/strp. Analysis and sterile cell sorting was conducted using a FACSvantage flow cytometer (Becton Dickinson) to isolate CD34^+CD38^− and CD34^+CD38^+ subsets. The CD34^+CD38^− sort gate was set to collect only those events falling in the lowest 5% of PE fluorescence within the total CD34^+ population, to ensure acquisition of highly purified CD34^+CD38^− cells.
(§5) Analysis of In Vitro Hematopoietic Activity of Human CD34^+CD38^−lin^− Cells Following Culture with LGD1506
(§6) Primary human BM and CB CD34^+CD38^−lin cells were placed in culture with 20 ng/mL thrombopoietin, 100 ng/mL stem cell factor (SCF), and flt-3 ligand (TSF), a cytokine combination previously found to induce human stem and progenitor cell proliferation and differentiation in vitro (Chute et al, Blood 105:576-583 (2005), Chute et al, Stem ells 22:202-215 (2004)).
In order to assess the hematopoietic effects of retinoid agonists on purified human HSCs, BM and CB CD34^+CD38^−lin^− cells were placed in culture with TSP with and without 1 μM all-trans retinoic acid (ATRA), an agonist of RAR. Total cell expansion, immunophenotype, colony forming cell (CFC) content and morphologic analysis was performed on ATRA-treated progeny and compared with both day 0 CD34^+CD38^−lin^− populations and the progeny of TSF alone to assess the impact of retinoid agonism on the differentiation of human HSCs. This analysis was extended further by cultivating BM and CB CD34^+CD38^−lin^− cells with TSF coupled with ligands with specific affinity for either RAR or RXR (provided courtesy of Ligand Pharmaceuticals, Inc., San Diego, Calif.). The hematopoietic activities of LGD0815, an RARA agonist, LGD0268, an RXR agonist, and LGD1506, an RXR selective modulator, in combination with TSF, were evaluated via measurement of total cell expansion, immunophenotype analysis, CFC content and morphologic analysis of cultured progeny versus day 0 (input) BM or CB CD34^+CD38^−lin^− cells.

[2] = tested on: CB CD34^+CD38^−lin^− cells; test: Culture of human CB CD34+CD38-lin- cells with TSF plus retinoid/rexinoid ligand (immunophenotype, CFC content); type: cell-based
Description: as §1, §2, §3, §4, §5, §6
In order to assess the hematopoietic effects of retinoid agonists on purified human HSCs, BM and CB CD34^+CD38^−lin^− cells were placed in culture with TSP with and without 1 μM all-trans retinoic acid (ATRA), an agonist of RAR. […] The hematopoietic activities of LGD0815, an RARA agonist, LGD0268, an RXR agonist, and LGD1506, an RXR selective modulator, in combination with TSF, were evaluated via measurement of total cell expansion, immunophenotype analysis, CFC content and morphologic analysis of cultured progeny versus day 0 (input) BM or CB CD34^+CD38^−lin^− cells.

HOXB4 = test: Quantitative real-time PCR of HOXB4 expression in cultured CB CD34+CD38-lin- cells; type: cell-based, human
Source text: Real Time PCR Analysis of LGD506-Treated HSCs
Extraction of total RNA from Day 0 and Day 7 CB CD34^+ populations was done using a RNeasy Mini spin column (Qiagen, Valencia, Calif.) according to the manufacturer's recommended protocol. […] Briefly, total RNA was isolated from CD34^+CD38^−lin^− cells according to the manufacturer's instructions for the RNaqueous®—Micro (Ambion) and reversed-transcribed to cDNA using iScript™ cDNA synthesis Kit (Biorad, Hercules, Calif.). cDNA concentrations were measured with a fluorometer (Turner Designs, Sunnyvale, Calif.) using RiboGreen reagent (Invitrogen). PCR amplification reactions were performed in 13 μl and contained equal amounts of cDNAs, 6.5 μL of iQ SYBR green supermix (Bio-Rad), 0.2 μM of each forward and reverse gene-specific primers for genes of interest and the normalization gene 36B4. PCR was performed on an iCycler (Bio-Rad) according to the following cycling conditions: an initial cycle of 15 min at 95° C.; 45 cycles of 45 sec at 95° C., 15 sec at 55° C., and 15 sec at 72° C.; followed by a melt-curve analysis cycle with steps of 10 sec each at 0.5° C. increments from 60 to 95° C. Amplification rates were visualized and analyzed on ICYCLER IQ optical system software version 3.0 (Bio-Rad). Gene-specific primers were purchased from Integrated DNA Technologies (Coralville, Iowa).

human BM SRCs = test: In vivo long-term repopulating assay in NOD/SCID mice (SRC assay) of cultured progeny
Description: In Vivo Long-Term Repopulating Assays in NOD/SCID Mice
NOD/SCID mice (Schulz et al, J. Immunol. 154:180-191 (1995)) were transplanted with either day 0 FACS-sorted BM or CB CD34^+CD38^− lin^− HSC-enriched cells or the progeny of CD34^+CD38^−lin− cells cultured with TSF alone or TSF supplemented with 1 μM LGD506, an RXR-specific ligand. Cells were transplanted via tail vein injection after irradiating NOD/SCID mice with 300 cGy using an X-ray irradiator as previously described (Chute et al, Blood 100:4433-4439 (2002), Chute et al, Blood 105:576-583 (2005)). Day 0 CD34^+CD38^−lin− HSCs and their progeny were co-transplanted with 2×10^4 […] accessory cells to facilitate engraftment as previously described (Bonnet et al, Bone Marrow Transpl. 23:203-209 (1999), Bhatia et al, Proc. Natl. Acad. Sci. USA 94:5320-5325 (1997)).
All mice in each group were sacrificed at week 8 and marrow samples were obtained by flushing their femurs with IMDM at 4° C. Red cells were lysed using red cell lysis buffer (Sigma-Aldrich) and flow cytometric analysis of human hematopoietic engraftment was performed as previously described using commercially available mAbs against human leukocyte differentiation antigens to identify engrafted human leukocytes and discriminate their hematopoietic lineages (Chute et al, Blood 100:4433-4439 (2002), Chute et al, Blood 105:576-583 (2005), Trischmann et al, J. Hematother. 2:305-313 (1993)).
Statistical Analysis and SRC Frequency Measurements
Comparisons of data from in vitro experiments were made using the Student's t test. For purposes of the limiting dilution analysis, a transplanted mouse was scored as positively engrafted if ≧0.1% of the marrow cells expressed human-CD45 via high resolution FACS analysis. This criteria is consistent with previously published criteria for human cell repopulation in NOD/SCID mice (Chute et al, Blood 100:4433-4439 (2002), Dorrell et al, Blood 95:102-110 (2000)). SRC frequency in each cell source was calculated using the maximum likelihood estimator as described previously by Taswell (J. Immunol. 126:1614-1619 (1981), Wang et al, Blood 89:3919-3924 (1997), Ueda et al, J. Clin. Invest. 105:1013-1021 (2000)). Confidence intervals for the frequencies were calculated using the profile likelihood method, and the likelihood ratio test was used to confirm the fit of the model.

RXR:RAR heterodimer = conditions: unpublished data of M. Leibowitz et al.; cited from earlier work
RXR:LXR heterodimer = conditions: unpublished data of M. Leibowitz et al.; cited from earlier work

CC1=C(/C=C/C(C)=C/C=C/C(C)=C/C(=O)O)C(C)(C)CCC1 [ATRA, all-trans retinoic acid]
percentage of CD34+CD38- cells at day 7 ([1]; BM cells, TSF+1 μM ligand, day 7): caused a decline | differentiation of human HSCs during culture ([2]; ATRA with TSF, by day 7): enhanced the differentiation; also recorded: induced pronounced differentiation and myelbid maturation | number of CFCs ([2]; CB cells, ATRA+TSF versus TSF alone): signficantly less CFCs; also recorded: decreased | percentage of CD34+ cells ([2]; CB cells, TSF+1 μM ATRA, 7 days, versus TSF alone): marked loss; also recorded: declined relative to TSF alone | CD34+CD38- cells remaining in culture ([2]; CB cells, TSF+1 μM ATRA, day 7): marked loss; also recorded: no CD34^+CD38^− cells remained

C/C(=C/C=C/C(C)=C/C(=O)O)c1cc(C(C)(C)C)cc(C(C)(C)C)c1OCC(F)F [LGD1506]
HOXB4 expression over time (HOXB4; LGD1506+TSF versus TSF alone (FIG. 3A)): prevented the downregulation | HOXB4 expression, percent of input (day 0) levels (HOXB4; LGD1506 added to TSF): 80% and 70% | huCD45+ cell repopulation of transplanted mice (human BM SRCs; cell dose 1−2.5×10^3, progeny of TSF+LGD1506 culture): no huCD45+ cell repopulation was detected | multilineage differentiation in engrafted mice (human BM SRCs; mice engrafted with LGD1506-treated cells): normal multilineage differentiation was evident | percent of transplanted mice with human repopulation (human BM SRCs; progeny of 5×10^3 BM CD34+CD38-lin- cells, LGD1506+TSF): 50-80% and 80% | mice showing huCD45+ cell repopulation (human BM SRCs; progeny of 5×10^3 BM CD34+CD38-lin- cells, LGD1506+TSF, week 8): 4 of 5 | mean huCD45+ cell repopulation (human BM SRCs; progeny of 5×10^3 BM cells, LGD1506+TSF): 0.2% | increase in BM CD34+CD38- cell numbers compared to day 0 (input) ([1]; BM cells, LGD1506+TSF): 4 fold | total cell expansion ([1]; BM cells, LGD1506+TSF, day 7): 13 fold | reduction in CFC production during culture compared to TSF alone ([1]; LGD1506+TSF culture (FIG. 2D)): 50% | morphologic examination of cultured progeny ([1]; LGD1506+TSF cultures, data not shown): predominance of immature blasts | differentiation of human HSCs during culture ([1]; LGD1506 with TSF): inhibited HSC differentiation | CFCs less compared to TSF-cultured cells ([1]; progeny of LGD1506+TSF cultures): 2 fold | effect on RXR:RAR heterodimer (RXR:RAR heterodimer): neutral or inhibitory effects | maintenance of CD34+CD38- cells in CB cultures ([2]; CB cells, TSF+LGD1506): supported the maintenance | effect on RXR:LXR heterodimer (RXR:LXR heterodimer): inhibit
